Data set [1] can be described thus: Pharmacokinetics of QHS and its phase I/II metabolites in plasma after oral QHS-PQ (Artequick). The settings on record: for CL/F / Cmax / MRT / AUC 0-t /dose: mean ± sd; for Cmax / MRT / Tmax: in vivo; for Cmax: C max; for Tmax: T max. As to the method:
The chromatography was performed at 22°C. The mobile phase consisted of acetonitrile and 5 mM aqueous ammonium acetate containing 0.1% (v/v) formic acid, delivered at a flow rate of 0.35 mL/min. The gradient chromatographic conditions were shown in the previous report. The autosampler was set at 4°C.
Plasma samples were subjected to a protein precipitation extraction process, which was performed on ice. A 100 μL aliquot of human plasma was mixed with 25 μL of acetonitrile and 200 μL of IS (1 μM of ARM, prepared in acetonitrile). The mixture was mixed and centrifuged at 3,000 g for 10 min. Aliquots (20 μL) of the solution were injected onto LC-MS analysis. […] This mixture was treated as above.
Plasma was separated by centrifugation at 3,000 g for 10 min at 4°C. The plasma was stored at -80°C until analysis.
(§1) The peak plasma concentration (Cmax) and time-to-peak concentration (Tmax) were obtained from experimental observations. The other pharmacokinetic parameters were analysed by non-compartmental model using the program TOPFIT (version 2.0; Thomae GmbH, Germany). The area under the plasma concentration-time curve (AUC o-t ) was calculated using the linear trapezoidal rule to approximately the last point. The mean residence time (MRT) was obtained by dividing the area under the first moment-time curve (AUMC 0-t ) by the area under the curve (AUC 0-t ). Total oral body clearance (CL/F) was calculated as dose/AUC 0-t .
(§2) Results were expressed as mean ± SD. The two-tailed t-test was used for paired comparison of the pharmacokinetic parameters between the single dose and multiple doses after logarithmic transformation. Geometric mean ratios with 90% confidence intervals (CIs) were calculated after log transformation of within-subject data. The comparison of Tmax for the different treatment groups was performed using the Wilcoxon signed-rank test. The acceptable level of significance was established at P < 0.05 or P < 0.01.

The nature of data set [2]: Bench-top stability of QC samples in human plasma on ice. It is filed as in vitro ADME. The following applies: human plasma on ice for at least 2 hours; difference < 15%.
For data set [3] the following is noted: cited from earlier work.
Data set [4] in a line: Pharmacokinetics of probe drug cocktail (bupropion, midazolam) and their metabolites before and after QHS-PQ. The following applies: for Geometric mean ratio (90% CI) of AUC 0-t /dose / Geometric mean ratio (90% CI) of C max / Geometric mean ratio (90% CI) of CL/F / Geometric mean ratio (90% CI) of MRT: 2-day (after QHS-PQ) versus 1-day (day -14); for AUC 0-t /dose: mean ± sd; for T max / Tmax: value (range). It is filed as in vivo, human. How it is done: The chromatography was performed at 22°C. The mobile phase consisted of B (acetonitrile) and A (0.1% formic acid in water), which increased linearly from 20% B to 90% B during 7 min before column re-equilibration at a flow rate of 0.3 mL/min.
Plasma samples were subjected to a protein precipitation extraction process. A 100 μL aliquot of human plasma was mixed with 25 μL of acetonitrile and 200 μL of IS (1 μM of alprazolam, prepared in acetonitrile). The mixture was mixed and centrifuged at 3,000 g for 10 min. Aliquots (20 μL) of the solution were injected onto LC-MS analysis. […] This mixture was treated as above. […] Plasma samples were diluted with blank plasma and reanalysed when the concentration of any analyte was higher than the upper limit of quantification.
Venous blood samples (2 mL) for analysis of probe drugs and their metabolites were taken from an indwelling intravenous catheter at 0, 0.25, 0.75, 1.5, 2.0, 3.0, 4.0, 5.0, 7.0, 11.0, 24.0, 36.0, and 48.0 hours.
as §1, §2

For a further data set, the system named is PXR. The following applies: cited from earlier work.
The subject of a further data set is CAR1/3. The following applies: cited from earlier work.
[5] abbreviates: human, po, 2-day oral QHS-PQ, value (range).
Setting [6] is: listed as '1-day': oral probe cocktail (bupropion 75 mg, midazolam 15 mg) on day -14, before QHS-PQ.
Where [7] appears, read: listed as '1-day': probe cocktail before QHS-PQ (day -14).
[8] abbreviates: listed as '2-day': probe cocktail 1 hour after second oral dose of QHS-PQ (day 2).
Setting [9] is: listed as '2-day': probe cocktail after second dose of QHS-PQ.
Setting [10] is: human, plasma, oral, row '1-day': probe cocktail before QHS-PQ (day -14).
Where [11] appears, read: human, plasma, oral, row '1-day': probe cocktail before QHS-PQ (day -14), read-out: CL/F (converted).
[12] abbreviates: human, plasma, oral, row '1-day': probe cocktail before QHS-PQ (day -14), read-out: MRT.
[13] abbreviates: human, plasma, oral, row '2-day': probe cocktail after second dose of QHS-PQ.
The mark [14] stands for this setting: human, plasma, oral, row '2-day': probe cocktail after second dose of QHS-PQ, read-out: CL/F (converted).
Setting [15] is: human, plasma, oral, row '2-day': probe cocktail after second dose of QHS-PQ, read-out: MRT.

Read-outs that look alike come from different tables or passages of the source. Marks after values point to notes of the source that are not given here.

The Cmax is the maximum level reached in the sampled fluid or tissue. A word on the MRT: it is a mean duration of stay, worked out from the concentration-time curve. One may read the Tmax as the time from dosing to the highest level.

On to `C[C@@H]1CC[C@H]2[C@@H](C)C(=O)O[C@@H]3O[C@@]4(C)CC[C@@H]1[C@]32OO4` [QHS, Artemisinin, reference compound], for which the CL/F is 164 ± 138 mL/min/kg in data set [1] (1-day oral QHS-PQ, dose/AUC0-t); 163 mL/min/kg in data set [1] (human, plasma, po, CL/F, 1-day oral QHS-PQ, dose/AUC0-t); 277 mL/min/kg in data set [1] (human, plasma, po, CL/F, 2-day oral QHS-PQ). Further, the “change of Cmax, Tmax and MRT after repeated drug dosing” value in data set [1] (P > 0.05) is given as “did not change”. In addition, the “inter-individual variability (%CV) for AUC 0-t” value in data set [1] (after the first dose, range 6.9-122.7%) is on record as 43.5%. Further, the Cmax in data set [1] (human, po, 1-day oral QHS-PQ) was 304 ± 192 nM; in data set [1] (human, po, 2-day oral QHS-PQ) it was 221 ± 118 nM. Further, the mean residence time MRT is 3.2 ± 0.9 h in data set [1] (human, po, 1-day oral QHS-PQ) and 2.9 ± 0.9 h in data set [1] (human, po, 2-day oral QHS-PQ). The Tmax in data set [1] (setting [5]) stood at 1.4 h. Moreover, the “decrease in AUC 0-t, second oral dose compared with the first dose” value in data set [1] (oral QHS-PQ, two consecutive days) turned out to be 35.2%. The stability in plasma result in data set [2] is “stable”. Further, the “dose-normalized AUC, reported range” value in data set [3] (healthy subjects and patients who received 500 mg of QHS) was 0.06 to 0.31 kg·h/L; in data set [3] (infected children, dose […]), 0.33 to 0.49 kg·h/L.

For the compound (±)-hydroxybupropion [OH-BUP], in data set [4], the “Geometric mean ratio (90% CI) of AUC 0-t /dose” value is 2.05 (1.83, 2.30)**; the “Geometric mean ratio (90% CI) of C max” value is on record as 1.65 (1.51, 1.82)**; the “Geometric mean ratio (90% CI) of CL/F” value is 0.49 (0.43, 0.55)**; the “Geometric mean ratio (90% CI) of MRT” value is reported as 1.04 (1.00, 1.07). In addition, the “AUC 0-t /dose” value in data set [4] (setting [6]) turned out to be 3.98 ± 1.45 kg·h/L. In data set [4] (setting [7]), the CL/F came out at 4.83 ± 1.83 mL/min/kg; the Cmax is 518 ± 162 nM; the mean residence time (MRT) is 19.4 ± 1.4 h; the T max is 5.2 (3.0, 11.0) h. Besides, the “AUC 0-t /dose” value in data set [4] (setting [8]) is 8.22 ± 3.43** h·kg·L^-1. For the same compound, in data set [4] (setting [9]), the CL/F was determined as 2.33 ± 0.83 mL/min/kg; the Cmax is 857 ± 245 nM; the MRT came out at 20.2 ± 1.5 h; the T max is recorded as 7.6 (3.0, 24.0) h.

As for `OCc1ncc2n1-c1ccc(Cl)cc1C(c1ccccc1F)=NC2` [OH-MDZ, α-hydroxymidazolam], in data set [4], the “Geometric mean ratio (90% CI) of AUC 0-t /dose” value is on record as 4.99 (4.66, 5.33)**; the “Geometric mean ratio (90% CI) of C max” value is 2.95 (2.44, 3.56)**; the “Geometric mean ratio (90% CI) of CL/F” value is given as 0.19 (0.18, 0.21)**; the “Geometric mean ratio (90% CI) of MRT” value is listed as 1.14 (1.01, 1.28). Also, the “AUC 0-t /dose” value in data set [4] (setting [6]) was 0.32 ± 0.09 kg·h/L. In data set [4] (setting [7]), the CL/F was found to be 55.2 ± 14 mL/min/kg; the Cmax was 82.3 ± 50.3 nM; the mean residence time (MRT) was 3.7 ± 1.0 h; the T max is 1.1 (0.3, 2.0) h. In data set [4] (setting [8]), the “AUC 0-t /dose” value is given as 1.60 ± 0.26** h·kg·L^-1. Also, in data set [4] (setting [9]), the CL/F amounted to 10.7 ± 1.83 mL/min/kg; the Cmax came to 243 ± 82 nM; the MRT came out at 4.2 ± 0.5 h; the T max is recorded as 1.5 (0.8, 3.0) h.

Regarding `C[C@@H]1CC[C@H]2[C@@H](C)C(=O)O[C@@H]3O[C@@]4(C)CC[C@@H]1[C@]32O4` [DeoxyQHS, Deoxyartemisinin], the “activity at PXR” value in the data set on PXR was “agonist”. The “AUC 0-t /dose” value in data set [1] (1-day (first oral dose of QHS-PQ, 1.8 mg/kg QHS plus 10.6 mg/kg piperaquine), 14 healthy Chinese, plasma) is reported as 0.09 ± 0.05** h·kg·L^-1. Besides, the T max in data set [1] (1-day oral QHS-PQ, value (range)) is reported as 2.2 (1.25, 4.0) h. Moreover, in data set [1] (2-day (second daily oral dose of QHS-PQ)), the “AUC 0-t /dose” value is on record as 0.06 ± 0.04** h·kg·L^-1. In data set [1] (2-day versus 1-day oral QHS-PQ), the “Geometric mean ratio (90% CI) of AUC 0-t /dose” value is listed as 0.68 (0.58, 0.79)**; the “Geometric mean ratio (90% CI) of AUC M /AUC QHS” value was 1.18 (0.97, 1.43); the “Geometric mean ratio (90% CI) of C max” value is on record as 0.78 (0.69, 0.89)*; the “Geometric mean ratio (90% CI) of CL/F” value is reported as 1.68 (1.45, 1.95)**. For the same compound, the “Geometric mean ratio (90% CI) of MRT” value in data set [1] (2-day versus 1-day oral QHS-PQ) was 0.89 (0.79, 0.99). Moreover, in data set [1] (P > 0.05), the “change of Tmax and MRT after repeated drug dosing” value is recorded as “did not change”. Further, in data set [1] (human, po, 1-day oral QHS-PQ), the Cmax was 71 ± 46.1 nM and the MRT was determined as 7.1 ± 0.6 h. In addition, in data set [1] (human, po, 2-day oral QHS-PQ), the Cmax was 55.6 ± 33.3 nM and the MRT is 6.2 ± 1.5 h. For the same compound, the Tmax in data set [1] (human, po, 1-day oral QHS-PQ, value (range)) lay in the range of 1.3 to 4 h. Moreover, the Tmax in data set [1] (setting [5]) is 2.3 h. Moreover, the “decrease in AUC 0-t after multiple oral doses” value in data set [1] (in 13 out of 14 subjects, range 20.3-71.8%) is on record as 34.7%. Further, in data set [1] (in four subjects), the “decrease of metabolic capability AUCdeoxy-QHS/AUCQHS after the second dose” value came to 41.6%. Besides, the “increase of metabolic capability AUCdeoxy-QHS/AUCQHS after the second dose” value in data set [1] (in six subjects) came out at 1.6 fold. Moreover, the “increase of CL/F after the second dose” value in data set [1] (second versus first oral dose of QHS-PQ) stood at 1.7 fold. Besides, in data set [2], the stability in plasma entry is “stable”. Besides, the “activity at CAR1/3” value in the data set on CAR1/3 is “agonist”.

As for `CC(NC(C)(C)C)C(=O)c1cccc(Cl)c1` (centres unmarked) [BUP, Bupropion], the Cmax in data set [4] (setting [10]) turned out to be 328 ± 181 nM; in data set [4] (setting [13]) it was 306 ± 147 nM. The values for the time of peak concentration (Tmax) in data set [4] (setting [10]) and in data set [4] (setting [13]) were 2.1 h and 2.5 h, respectively. Moreover, the CL/F in data set [4] (setting [11]) was 62.2 mL/min/kg; in data set [4] (setting [14]), 63 mL/min/kg. The MRT in data set [4] (setting [12]) was determined as 6.8 ± 1.9 h; in data set [4] (setting [15]), 6.1 ± 1.7 h.

For the compound `Cc1ncc2n1-c1ccc(Cl)cc1C(c1ccccc1F)=NC2` [MDZ, midazolam], the figures for the Cmax in data set [4] (setting [10]) and in data set [4] (setting [13]) were 206 ± 115 nM and 305 ± 115 nM, respectively. The values for the Tmax in data set [4] (setting [10]) and in data set [4] (setting [13]) were 1.3 h and 0.8 h, respectively. Further, the CL/F in data set [4] (setting [11]) is 18.2 mL/min/kg; in data set [4] (setting [14]) it was 11.7 mL/min/kg. Moreover, the MRT in data set [4] (setting [12]) worked out at 4.1 ± 0.7 h; in data set [4] (setting [15]), 4.2 ± 0.7 h.

The record behind these values is paper PMC4055232 (Malaria Journal, 2014).
